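Protocol summary: plate cells (96-well), add compound at 5 concentrations, incubate 48 h, interpolate endpoints linearly. Abbreviation: GI50, concentration required for 50% inhibition of growth.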 Active and inactive are the calls of the source. Cut-off read from the data, not from the text of the source: active = GI50 up to about 1.1 µM and inactive = higher.
Columns and labels:
Experiment in all cases: NCI anticancer screen, dose series, 48 h
NCI-H522 = system: NCI-H522
A498 = system: A498
U-251 = system: U-251
M14 = system: M14
SK-OV-3 = system: SK-OV-3
SR = system: SR
HCT-116 = system: HCT-116
HOP-62 = system: HOP-62
HL-60 = system: HL-60
MCF7 = system: MCF7
SK-MEL-28 = system: SK-MEL-28
SN12C = system: SN12C
K562 = system: K562
UACC-257 = system: UACC-257
OVCAR-8 = system: OVCAR-8
OVCAR-4 = system: OVCAR-4
SNB-19 = system: SNB-19
IGROV-1 = system: IGROV-1
NCI-H226 = system: NCI-H226
RXF 393 = system: RXF 393
NCI/ADR-RES = system: NCI/ADR-RES
NCI-H460 = system: NCI-H460
SNB-75 = system: SNB-75
T47D = system: T47D
TK-10 = system: TK-10
ACHN = system: ACHN
COLO 205 = system: COLO 205
SF-295 = system: SF-295
MDA-MB-435 = system: MDA-MB-435
NCI-H23 = system: NCI-H23
EKVX = system: EKVX
KM12 = system: KM12
Hs-578T = system: Hs-578T
UO-31 = system: UO-31
MDA-MB-231 = system: MDA-MB-231
OVCAR-3 = system: OVCAR-3
LOX IMVI = system: LOX IMVI
SF-268 = system: SF-268
RPMI-8226 = system: RPMI-8226
UACC-62 = system: UACC-62
SK-MEL-2 = system: SK-MEL-2
OVCAR-5 = system: OVCAR-5
HT-29 = system: HT-29
CCRF-CEM = system: CCRF-CEM
HCT-15 = system: HCT-15
Malme-3M = system: Malme-3M
SK-MEL-5 = system: SK-MEL-5
CAKI-1 = system: CAKI-1
BT-549 = system: BT-549
SF-539 = system: SF-539
DU-145 = system: DU-145
MDA-N = system: MDA-N
SW-620 = system: SW-620
PC-3 = system: PC-3
A549 = system: A549
786-0 = system: 786-0
MOLT-4 = system: MOLT-4
HOP-92 = system: HOP-92
HCC 2998 = system: HCC 2998

**Q.** With `CC12CCC(=O)C=C1CCC1C2CCC2(C)C(C(=O)Cn3cnc4c(=S)nc[nH]c43)CCC12` (stereo unspecified) as the compound, how does the GI50 (NCI-H522) read?
**A.** 23.4 µM (inactive)

**Q.** What about the GI50 (A498) of the same compound?
**A.** 29.9 µM (inactive)

**Q.** And the GI50 (U-251)?
**A.** 30.1 µM (inactive)

**Q.** And the GI50 (M14)?
**A.** 27.5 µM (inactive)

**Q.** What about the GI50 (SK-OV-3) of the same compound?
**A.** 33.5 µM (inactive)

**Q.** What about the GI50 (SR) of the same compound?
**A.** 27.4 µM (inactive)

**Q.** What about the GI50 (HCT-116) of the same compound?
**A.** 35.9 µM (inactive)

**Q.** What about the GI50 (HOP-62) of the same compound?
**A.** 18.2 µM (inactive)

**Q.** What about the GI50 (HL-60) of the same compound?
**A.** 33.3 µM (inactive)

**Q.** And the GI50 (MCF7)?
**A.** 18.1 µM (inactive)

**Q.** And the GI50 (SK-MEL-28)?
**A.** > 100 µM (inactive)

**Q.** And the GI50 (SN12C)?
**A.** 67.8 µM (inactive)

**Q.** What about the GI50 (K562) of the same compound?
**A.** 48.3 µM (inactive)

**Q.** And the GI50 (UACC-257)?
**A.** 35.6 µM (inactive)

**Q.** And the GI50 (OVCAR-8)?
**A.** 27.5 µM (inactive)

**Q.** What about the GI50 (OVCAR-4) of the same compound?
**A.** 17.3 µM (inactive)

**Q.** What about the GI50 (SNB-19) of the same compound?
**A.** 23.6 µM (inactive)

**Q.** What about the GI50 (IGROV-1) of the same compound?
**A.** 23.6 µM (inactive)

**Q.** And the GI50 (NCI-H226)?
**A.** 41.5 µM (inactive)

**Q.** What about the GI50 (RXF 393) of the same compound?
**A.** 17.6 µM (inactive)

**Q.** What about the GI50 (NCI/ADR-RES) of the same compound?
**A.** 62.4 µM (inactive)

**Q.** What about the GI50 (NCI-H460) of the same compound?
**A.** 28.8 µM (inactive)

**Q.** What about the GI50 (SNB-75) of the same compound?
**A.** 15.5 µM (inactive)

**Q.** And the GI50 (T47D)?
**A.** 9.23 µM (inactive)

**Q.** What about the GI50 (TK-10) of the same compound?
**A.** 36 µM (inactive)

**Q.** What about the GI50 (ACHN) of the same compound?
**A.** 40 µM (inactive)

**Q.** And the GI50 (COLO 205)?
**A.** 42 µM (inactive)

**Q.** What about the GI50 (SF-295) of the same compound?
**A.** 28.2 µM (inactive)

**Q.** And the GI50 (MDA-MB-435)?
**A.** 24.7 µM (inactive)

**Q.** What about the GI50 (NCI-H23) of the same compound?
**A.** 24.5 µM (inactive)

**Q.** And the GI50 (EKVX)?
**A.** 41.5 µM (inactive)

**Q.** And the GI50 (KM12)?
**A.** 37.9 µM (inactive)

**Q.** What about the GI50 (Hs-578T) of the same compound?
**A.** 52 µM (inactive)

**Q.** And the GI50 (UO-31)?
**A.** 44.8 µM (inactive)

**Q.** What about the GI50 (MDA-MB-231) of the same compound?
**A.** 38.9 µM (inactive)

**Q.** And the GI50 (OVCAR-3)?
**A.** 18.2 µM (inactive)

**Q.** And the GI50 (LOX IMVI)?
**A.** 24.3 µM (inactive)

**Q.** What about the GI50 (SF-268) of the same compound?
**A.** 38.3 µM (inactive)

**Q.** And the GI50 (RPMI-8226)?
**A.** 25.5 µM (inactive)

**Q.** What about the GI50 (UACC-62) of the same compound?
**A.** 23.8 µM (inactive)

**Q.** What about the GI50 (SK-MEL-2) of the same compound?
**A.** 41.9 µM (inactive)

**Q.** What about the GI50 (OVCAR-5) of the same compound?
**A.** > 100 µM (inactive)

**Q.** And the GI50 (HT-29)?
**A.** 33 µM (inactive)

**Q.** What about the GI50 (CCRF-CEM) of the same compound?
**A.** 25.5 µM (inactive)

**Q.** What about the GI50 (HCT-15) of the same compound?
**A.** 58.6 µM

**Q.** What about the GI50 (Malme-3M) of the same compound?
**A.** 40.5 µM (inactive)

**Q.** What about the GI50 (SK-MEL-5) of the same compound?
**A.** 30.6 µM (inactive)

**Q.** What about the GI50 (CAKI-1) of the same compound?
**A.** 34 µM (inactive)

**Q.** And the GI50 (BT-549)?
**A.** 28.4 µM (inactive)

**Q.** And the GI50 (SF-539)?
**A.** 55.5 µM (inactive)

**Q.** And the GI50 (DU-145)?
**A.** 23.3 µM (inactive)

**Q.** And the GI50 (MDA-N)?
**A.** 39.2 µM (inactive)

**Q.** And the GI50 (SW-620)?
**A.** 76.2 µM (inactive)

**Q.** What about the GI50 (PC-3) of the same compound?
**A.** 63.7 µM (inactive)

**Q.** What about the GI50 (A549) of the same compound?
**A.** 48.1 µM (inactive)

**Q.** What about the GI50 (786-0) of the same compound?
**A.** 27.2 µM (inactive)

**Q.** And the GI50 (MOLT-4)?
**A.** 21.6 µM (inactive)

**Q.** And the GI50 (HOP-92)?
**A.** 10 µM (inactive)

**Q.** Which results are given for `Sc1ccc2ccccc2c1CNCc1ccccc1`?
**A.** GI50 (NCI-H522): 4.93 µM (inactive); GI50 (A498): 16.3 µM (inactive); GI50 (U-251): 12.8 µM (inactive); GI50 (M14): 10 µM (inactive); GI50 (SK-OV-3): 11.8 µM (inactive); GI50 (SR): 3.44 µM (inactive); GI50 (HCT-116): 13.8 µM (inactive); GI50 (HOP-62): 15.4 µM (inactive); GI50 (HL-60): 5.77 µM (inactive); GI50 (MCF7): 13.7 µM (inactive); GI50 (SK-MEL-28): 21.5 µM (inactive); GI50 (SN12C): 6.24 µM (inactive); GI50 (K562): 13.3 µM (inactive); GI50 (UACC-257): 26.6 µM (inactive); GI50 (OVCAR-8): 20.5 µM (inactive); GI50 (OVCAR-4): 10.9 µM (inactive); GI50 (SNB-19): 24.3 µM (inactive); GI50 (IGROV-1): 2.65 µM (inactive); GI50 (NCI-H226): 3.08 µM (inactive); GI50 (RXF 393): 11.8 µM (inactive); GI50 (NCI/ADR-RES): 25.4 µM (inactive); GI50 (NCI-H460): 24.1 µM (inactive); GI50 (SNB-75): 15.7 µM (inactive); GI50 (T47D): 19.3 µM (inactive); GI50 (TK-10): 30.8 µM (inactive); GI50 (ACHN): 19 µM (inactive); GI50 (COLO 205): 13.7 µM (inactive); GI50 (SF-295): 19.4 µM (inactive); GI50 (MDA-MB-435): 12.3 µM (inactive); GI50 (NCI-H23): 14.5 µM (inactive); GI50 (EKVX): 22.9 µM (inactive); GI50 (KM12): 13.9 µM (inactive); GI50 (Hs-578T): 22.7 µM (inactive); GI50 (UO-31): 11.7 µM (inactive); GI50 (MDA-MB-231): 18.5 µM (inactive); GI50 (OVCAR-3): 13.6 µM (inactive); GI50 (LOX IMVI): 5.78 µM (inactive); GI50 (SF-268): 8.47 µM (inactive); GI50 (RPMI-8226): 12.5 µM (inactive); GI50 (UACC-62): 14.3 µM (inactive); GI50 (SK-MEL-2): 19.7 µM (inactive); GI50 (HCC 2998): > 100 µM (inactive); GI50 (OVCAR-5): 13.1 µM (inactive); GI50 (HT-29): 27.9 µM (inactive); GI50 (CCRF-CEM): 3.72 µM (inactive); GI50 (HCT-15): 16.4 µM; GI50 (Malme-3M): 21.8 µM (inactive); GI50 (SK-MEL-5): 9.46 µM (inactive); GI50 (CAKI-1): 15.7 µM (inactive); GI50 (BT-549): 15.8 µM (inactive); GI50 (SF-539): 10 µM (inactive); GI50 (DU-145): 18.4 µM (inactive); GI50 (MDA-N): 13.2 µM (inactive); GI50 (SW-620): 9.12 µM (inactive); GI50 (PC-3): 18.8 µM (inactive); GI50 (A549): 25.3 µM (inactive); GI50 (786-0): 9.75 µM (inactive); GI50 (MOLT-4): 2.25 µM (inactive)
